Data from patent publication US9776972B2, “Pyrazole derivatives as arginine methyltransferase inhibitors and uses thereof” (priority 2013, dated 2017).
Where a name gives a salt, the structure may show the parent alone. Read-outs that look alike come from different tables or passages of the source.

Tests used:
[1] = target: T1, human PRMT1 (Homo sapiens, UniProt Q99873); experiment: PRMT1 Biochemical Assay (3H-SAM Flashplate, peptide substrate)
T1 construct: GST-tagged PRMT1; made in house; host or cells: High Five insect cells (baculovirus)
Source text: (§1) S-adenosylmethionine (SAM), S-adenosylhomocysteine (SAH), bicine, Tween20, dimethylsulfoxide (DMSO), bovine skin gelatin (BSG), and Tris(2-carboxyethyl)phosphine hydrochloride solution (TCEP) were purchased from Sigma-Aldrich at the highest level of purity possible. ^3H-SAM was purchase from American Radiolabeled Chemicals with a specific activity of 80 Ci/mmol. 384-well streptavidin Flashplates were purchased from PerkinElmer.
Recombinant baculovirus were generated according to Bac-to-Bac kit instructions (Life Technologies). […] Infections were carried out at 27° C. for 48 hours, harvested by centrifugation, and stored at −80° C. for purification.
GST-tagged PRMT1 was eluted with 50 mM Tris, 2 mM glutathione, pH 7.8, dialysed in buffer A and concentrated to 1 mg/mL.
General Procedure for PRMT1 Enzyme Assays on Peptide Substrates.
(§2) The assays were all performed in a buffer consisting of 20 mM Bicine (pH=7.6), 1 mM TCEP, 0.005% BSG, and 0.002% Tween 20, prepared on the day of use. […] DMSO (1 ul) was added to Columns 11, 12, 23, 24, rows A-H for the maximum signal control and 1 ul of SAH, a known product and inhibitor of PRMT1, was added to columns 11, 12, 23, 24, rows I-P for the minimum signal control. A cocktail (40 ul) containing the PRMT1 enzyme was added by Multidrop Combi (Thermo-Fisher). The compounds were allowed to incubate with PRMT1 for 30 min at room temperature, then a cocktail (10 ul) containing SAM and peptide was added to initiate the reaction (final volume=51 ul). […] The assays were stopped by the addition of non-radiolabeled SAM (10 ul) to a final concentration of 300 uM, which dilutes the ^3H-SAM to a level where its incorporation into the peptide substrate is no longer detectable. 50 ul of the reaction in the 384-well polypropylene plate was then transferred to a 384-well Flashplate and the biotinylated peptides were allowed to bind to the streptavidin surface for at least 1 hour before being washed once with 0.1% Tween20 in a Biotek ELx405 plate washer. The plates were then read in a PerkinElmer TopCount plate reader to measure the quantity of ^3H-labeled peptide bound to the Flashplate surface, measured as disintegrations per minute (dpm) or alternatively, referred to as counts per minute (cpm).
(§3) Where dpm=disintegrations per minute, cmpd=signal in assay well, and min and max are the respective minimum and maximum signal controls.
(§4) Where top and bottom are the normally allowed to float, but may be fixed at 100 or 0 respectively in a 3-parameter fit. The Hill Coefficient normally allowed to float but may also be fixed at 1 in a 3-parameter fit. Y is the % inhibition and X is the compound concentration.

[2] = target: human PRMT8 (Homo sapiens, UniProt Q9NR22); experiment: PRMT8 Biochemical Assay (3H-SAM Flashplate, peptide substrate)
Source text: as §1, with “(BSG), isopropyl-β-D-thiogalactopyranoside (IPTG),” for “(BSG),”
Peptide representative of human histone H4 residues 31-45 was synthesized with an N-terminal linker-affinity tag motif and a C-terminal amide cap by 21st Century Biochemicals.
E. coli (BL21(DE3) Gold, Stratagene) made competent by the CaCl2 method were transformed with the PRMT8 construct and ampicillin selection. Protein over-expression was accomplished by growing the PRMT8 expressing E. coli clone and inducing expression with 0.3 mM IPTG at 16° C. The culture was grown for 12 hours, harvested by centrifugation, and stored at −80° C. for purification.
GST-tagged PRMT8 was eluted with 50 mM Tris, 2 mM glutathione, pH 7.8. Pooled fractions were cleaved by thrombin (10 U) and dialysed in buffer A. GST was removed by reloading the cleaved protein sample onto glutathione sepharose column and PRMT8 was collected in the flow-through fractions. PRMT8 was purified further by ceramic hydroxyapatite chromatography. The column was washed with 50 mM phosphate buffer, 100 mM NaCl, 5% glycerol, 5 mM β-mercaptoethanol, pH 7.8 and PRMT8 was eluted by 100 mM phosphate in the same buffer. Protein was concentrated and buffer was exchanged to 50 mM Tris, 300 mM NaCl, 10% glycerol, 5 mM β-mercaptoethanol, pH 7.8 by ultrafiltration.
General Procedure for PRMT8 Enzyme Assays on Peptide Substrates.
as §2, with “of PRMT8,” for “of PRMT1,”, “the PRMT8” for “the PRMT1”, “with PRMT8” for “with PRMT1”, “containing ^3H-SAM” for “containing SAM”, “of 400” for “of 300”
as §3, §4

[3] = single experiment or average of multiple experiments

T1 sequence (Q99873 with tags, fused parts or gaps): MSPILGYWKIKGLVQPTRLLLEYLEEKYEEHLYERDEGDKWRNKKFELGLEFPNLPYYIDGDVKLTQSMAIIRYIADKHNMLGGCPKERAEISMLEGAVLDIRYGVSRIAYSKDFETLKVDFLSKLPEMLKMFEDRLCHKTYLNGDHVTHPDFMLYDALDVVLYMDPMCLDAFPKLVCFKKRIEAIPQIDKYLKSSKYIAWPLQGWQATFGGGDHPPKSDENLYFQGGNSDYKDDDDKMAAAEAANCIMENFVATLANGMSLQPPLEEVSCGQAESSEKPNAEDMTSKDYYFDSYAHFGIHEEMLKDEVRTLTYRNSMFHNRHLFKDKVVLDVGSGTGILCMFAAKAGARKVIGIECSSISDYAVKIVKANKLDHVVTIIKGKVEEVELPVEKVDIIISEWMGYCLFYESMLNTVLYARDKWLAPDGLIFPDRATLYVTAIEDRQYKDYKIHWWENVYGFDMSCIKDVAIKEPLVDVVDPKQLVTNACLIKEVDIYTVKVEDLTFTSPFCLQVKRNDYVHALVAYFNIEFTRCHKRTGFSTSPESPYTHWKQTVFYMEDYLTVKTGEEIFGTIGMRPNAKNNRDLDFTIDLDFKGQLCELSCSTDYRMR
human PRMT8, sequence (Q9NR22 whole entry): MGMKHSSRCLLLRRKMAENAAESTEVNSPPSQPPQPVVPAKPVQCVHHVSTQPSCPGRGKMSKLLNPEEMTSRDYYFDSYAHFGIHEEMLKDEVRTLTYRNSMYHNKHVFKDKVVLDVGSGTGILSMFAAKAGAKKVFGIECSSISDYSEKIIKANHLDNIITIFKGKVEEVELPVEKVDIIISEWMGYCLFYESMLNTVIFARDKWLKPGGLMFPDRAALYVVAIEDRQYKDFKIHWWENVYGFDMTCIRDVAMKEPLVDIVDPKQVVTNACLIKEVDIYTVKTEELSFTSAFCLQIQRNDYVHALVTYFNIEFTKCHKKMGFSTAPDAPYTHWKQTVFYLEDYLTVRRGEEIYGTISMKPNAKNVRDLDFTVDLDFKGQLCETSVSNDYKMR

SMILES	IC50 [1, 3]	IC50 [2, 3]	IC50 [1]	IC50 [2]
COCCn1ncc(CN(C)CCN)c1-c1ccc(F)cc1 [Compound 6]	3460 nM			
CCn1ncc(CN(C)CCNC)c1-c1ccc(F)cc1 [Compound 7]	265 nM	3240 nM		
CCn1cc(CN(C)CCNC)c(-c2ccc(F)cc2)n1 [Compound 8]	1180 nM	7200 nM		
CN(CCN)Cc1c[nH]nc1-c1ccc(OCC(F)(F)F)cc1 [Compound 96]	4.41 nM	171 nM		
CC(C)Oc1ccc(-c2n[nH]cc2CN(C)CCN)cc1F [Compound 97]	2.6 nM	89 nM		
CN(CCN)Cc1c[nH]nc1-c1ccc(C2CCOCC2)cc1 [Compound 98]	5.84 nM	156 nM		
CN(CCN)Cc1c[nH]nc1-c1ccc(F)cc1F [Compound 99]	90.2 nM	2200 nM		
CN(CCN)Cc1n[nH]cc1-c1ccc(C#N)cc1 [Compound 100]	12 nM	290 nM		
CC(C)c1ccc(-c2c[nH]nc2CN(C)CCN)cc1 [Compound 101]	20.3 nM	570 nM		
CN(CCN)Cc1n[nH]cc1-c1ccc(Cl)cc1 [Compound 102]	11.3 nM	311 nM		
CN(CCN)Cc1n[nH]cc1-c1ccc(C(F)(F)F)cc1 [Compound 103]	10.2 nM	366 nM		
CN(CCN)Cc1n[nH]cc1-c1ccc(C2CC2)cc1 [Compound 104]	15.7 nM	301 nM		
CN(CCN)Cc1n[nH]cc1-c1ccc(OC(F)(F)F)cc1 [Compound 105]	8.85 nM	130 nM		
COc1ccc(-c2n[nH]cc2CN(C)CCN)c(F)c1 [Compound 107]	44.1 nM	912 nM		
Cc1ccc(-c2n[nH]cc2CN(C)CCN)c(F)c1 [Compound 108]	31.3 nM	1000 nM		
COc1ccccc1-c1n[nH]cc1CN(C)CCN [Compound 109]	244 nM	2080 nM		
Cc1cc(C#N)ccc1-c1n[nH]cc1CN(C)CCN [Compound 110]	21.6 nM	540 nM		
CN(CCN)Cc1c[nH]nc1-c1cc(F)cc(F)c1 [Compound 111]	18.9 nM	799 nM		
CC(=O)c1cccc(-c2n[nH]cc2CN(C)CCN)c1 [Compound 112]	81 nM	335 nM		
CN(CCN)Cc1c[nH]nc1-c1ccc(OC2CC2)cc1 [Compound 114]	5.75 nM	47.5 nM		
CC(O)c1ccc(-c2n[nH]cc2CN(C)CCN)cc1 (stereo not drawn) [Compound 115]	46 nM	1100 nM		
CN(CCN)Cc1c[nH]nc1-c1ccc(C2CC2)cc1 [Compound 116]	4.84 nM	124 nM		
CN(CCN)Cc1c[nH]nc1-c1ccc(C(F)(F)F)c(Cl)c1 [Compound 117]	5.76 nM	87.8 nM		
CN(CCN)Cc1c[nH]nc1-c1ccc(Cl)c(F)c1 [Compound 118]	2.94 nM	136 nM		
CN(CCN)Cc1n[nH]cc1-c1ccc(OC2CC2)cc1 [Compound 119]	16.2 nM	336 nM		

SMILES	IC50 [1, 3]	IC50 [2, 3]	IC50 [1]	IC50 [2]
CN(CCN)Cc1c[nH]nc1-c1cc(F)cc(Cl)c1 [Compound 121]	10.7 nM	218 nM		
CN(CCN)Cc1c[nH]nc1-c1cccc(Cl)c1 [Compound 122]	24.3 nM	548 nM		
CN(CCN)Cc1c[nH]nc1-c1cccc(Cl)c1F [Compound 123]	43.9 nM	532 nM		
CN(CCN)Cc1c[nH]nc1-c1ccc(F)c(Cl)c1 [Compound 124]	13.7 nM	294 nM		
COc1ccc(-c2n[nH]cc2CN(C)CCN)cc1Cl [Compound 125]	8.38 nM	308 nM		
Cc1ccc(-c2n[nH]cc2CN(C)CCN)cc1Cl [Compound 126]	6.81 nM	232 nM		
COc1cc(Cl)cc(-c2n[nH]cc2CN(C)CCN)c1 [Compound 127]	46.1 nM	548 nM		
Cc1c(F)cccc1-c1n[nH]cc1CN(C)CCN [Compound 129]	121 nM	990 nM		
COc1cccc(-c2n[nH]cc2CN(C)CCN)c1 [Compound 130]	135 nM	645 nM		
Cc1cccc(-c2n[nH]cc2CN(C)CCN)c1 [Compound 131]	29.6 nM	360 nM		
CN(CCN)Cc1c[nH]nc1-c1ccc(Cl)cc1F [Compound 132]	23.9 nM	365 nM		
Cc1cc(Cl)ccc1-c1n[nH]cc1CN(C)CCN [Compound 133]	24.8 nM	142 nM		
COc1ccc(-c2n[nH]cc2CN(C)CCN)cc1F [Compound 134]	10.8 nM	251 nM		
CN(CCN)Cc1c[nH]nc1-c1ccc(C(F)(F)F)cc1Cl [Compound 135]	48.1 nM	1320 nM		
CCNC(=O)c1ccc(-c2n[nH]cc2CN(C)CCN)cc1 [Compound 136]	27.5 nM	496 nM		
CN(CCN)Cc1c[nH]nc1-c1cc(Cl)cc(Cl)c1 [Compound 137]	19.2 nM	656 nM		
CN(CCN)Cc1n[nH]cc1-c1ccc(OC(F)F)cc1 [Compound 138]	21.2 nM	131 nM		
CN(CCN)Cc1c[nH]nc1-c1ccccc1C#N [Compound 140]	399 nM	8270 nM		
CN(CCN)Cc1c[nH]nc1-c1ccc(C(F)(F)F)c(F)c1 [Compound 141]	8.16 nM	305 nM		
COc1cc(-c2n[nH]cc2CN(C)CCN)ccc1F [Compound 142]	29.7 nM	273 nM		
CCN(CC)C(=O)c1ccc(-c2n[nH]cc2CN(C)CCN)cc1 [Compound 143]	116 nM	1750 nM		
CC(C)Oc1ccc(-c2c[nH]nc2CN(C)CCN)cc1F [Compound 144]	5.79 nM	171 nM		
CNCCN(C)Cc1cnn(C)c1-c1ccc(OC(C)C)cc1 [Compound 244, hydrochloride]	8.68 nM		< 100 nM	
CNCCN(C)Cc1c[nH]nc1-c1ccc(OC2COC2)cc1 [Compound 283]	6.65 nM	42.8 nM	< 100 nM	< 100 nM
